Results on 1 substance are retold here after patent publication US20260242776A1, “Modification of tRNA T-Stem for Enhancing N-Methyl Amino Acid Incorporation” (priority 2019, published 2026).

*1 amine or outer side, *2 acyl side, *3 side chain or, on linkers, in order; H or OH if unused. Where no end group is shown, it is not given here. [ ]: non-standard residue; d: D form. The star is where a group is joined. MeYm = N-methyl-p-methoxyphenylalanine, COc1ccc(C[C@@H](C(=O)[*:2])N(C)[*:1])cc1; NMeY = CN[C@@H](Cc1ccc(O)cc1)C(=O)O; NMeF = CN[C@@H](Cc1ccccc1)C(=O)O; NMeNle = CCCC[C@H](NC)C(=O)O; NMeNva = CCC[C@H](NC)C(=O)O; NMeV = CN[C@H](C(=O)O)C(C)C; NMeS = CN[C@@H](CO)C(=O)O; NMeA = CN[C@@H](C)C(=O)O; Sar = CNCC(=O)O; For = O=C*

The assay has as its system FIT system (reconstituted E. coli cell-free translation system). The experiment in a line: In vitro translation in FIT system, peptide expression level by tricine-SDS-PAGE autoradiography. It counts as biochemical. As to conditions: mRNA14, 9 different ^MeAAs; control translation using 20 pAAs; FIG. 6d, 6e.

In the case of “P14: 32-mer model peptide composed of 9 respectively different ^MeAAs and 14 pAAs, translated from mRNA14 (For-MKKK[NMeS]HM[Sar][NMeV]TE[NMeNle]S[NMeY][NMeA]QN[MeYm]GW[NMeNva]R[NMeF]PDYKDDDDK)”, the “Expression efficiency relative to the control” value worked out at 34%.
